US20170157260A1, “Glycosylated Polypeptide and Drug Composition Containing said Polypeptide” (Glytech, Inc., priority 2011, published 2017)

Key:
[1] = test system: growth hormone (GH) production; experiment: GH production suppression test with rats; type: in vivo; conditions: Table 7 (Example 86), subcutaneous, 1 hour before GRF, plasma GH 5 minutes after GRF, vehicle 861
Description: This experimental line was carried out as a test line that can evaluate the pharmacological action of the glycosylated form on SSTR and its residence in blood after administration, with blood GH production amount as an indicator.
Moreover, GRF (GH releasing hormone, Growth hormone releasing factor) was used as the GH release enhancer. […] As heparin employed as the anticoagulant when collecting blood, Japanese Pharmacopeia heparin sodium injectable solution (Lot. B084, from Mochida Pharmaceutical Co., Ltd.) was used directly as stock solution.
As the control group, saline without glycosylated polypeptide was similarly administered (vehicle group). […] One hour after administration of the glycosylated form, i.e. after 50 minutes or more had passed under anesthesia, GRF was administered as the GH release enhancer to the tail vain at a dosage of 1 mL/kg with a glass syringe and an injection needle. Five minutes after administration of GRF, blood was collected from the rat cervical vein with a glass syringe containing heparin and an injection needle. 0.4 mL of the collected blood was left on ice for 20 minutes or more, then centrifuged (1,870×g, 4° C., 10 minutes), and 100 μL of the supernatant was taken as the plasma sample. As blank plasma, plasma obtained by similarly treating the blood collected from untreated rat cervical vein was employed. Plasma samples were frozen in storage until employed for measurement.
The plasma sample was diluted with the assay buffer supplied in the EIA kit to 20, 100, and 500-folds as measurement samples. […] By multiplying the results obtained and the dilution ratio, the GH concentration was calculated.

[2] = test system: rat gastrointestinal obstruction model; experiment: Gastrointestinal obstruction model: intestinal fluid weight; type: in vivo, rats; conditions: Table 9; jejunum, 1 hour after subcutaneous administration of 40 μM solution at 1 mL/kg, 18 hours after ligation
Description: (§1) This experimental line was carried out as a test line to evaluate the promotion of intestinal fluid absorption or the secretory suppressing action, using the change in the intestinal fluid weight in the jejunum after bowel obstruction as an indicator. Moreover, blood parameters of deviation enzymes amylase (pancreas), lactate dehydrogenase (LDH, liver), and creatine phosphokinase (CPK, skeletal muscle, cardiac muscle etc.) were measured as indicators of tissue disorders.
Anesthesia was introduced with inhalation of 2% isoflurane and laughing gas:oxygen=7:3, and this was maintained throughout the surgery. A median incision was made in the abdomen, and the jejunum at about 10 cm from the musculus suspensorius duodeni was ligated with a surgical suture. Then, the incision site was promptly sutured, and the rats were fasted until compound administration. […]
One hour after compound administration, a median incision was made in the abdomen under inhalation anesthesia, and 1.5 mL of blood was collected from the abdominal vena cava. […] The fluid and blood on the jejunum surface were removed with a paper towel, nerves, blood vessels, and fat attached to the jejunum was removed, this was cut into 6 cm lengths, and wet weight was measured. This was then dried at 36 degrees for 24 hours, and dry weight was measured.

[3] = test system: rat gastrointestinal obstruction model; experiment: Gastrointestinal obstruction model: blood parameters (amylase, LDH, CPK); conditions: Table 10; blood 1 hour after subcutaneous administration
Description: as §1
Anesthesia was introduced with inhalation of 2% isoflurane and laughing gas:oxygen=7:3, and this was maintained throughout the surgery. A median incision was made in the abdomen, and the jejunum at about 10 cm from the musculus suspensorius duodeni was ligated with a surgical suture. Then, the incision site was promptly sutured, and the rats were fasted until compound administration. In the sham treatment group, ligation of the jejunum was not performed, but the treatment of suturing the incision site after a median incision was made in the abdomen was performed.
Eighteen hours after the gastrointestinal obstruction surgery, this was subcutaneously administered into the dorsal cervix at a dosage of 1 mL/kg with a glass syringe and a 25 G injection needle (all from Terumo Corporation). As the vehicle group, saline without glycosylated polypeptide was similarly administered.
One hour after compound administration, a median incision was made in the abdomen under inhalation anesthesia, and 1.5 mL of blood was collected from the abdominal vena cava. Then, the ligated jejunum on the musculus suspensorius duodeni side was resected. The fluid and blood on the jejunum surface were removed with a paper towel, nerves, blood vessels, and fat attached to the jejunum was removed, this was cut into 6 cm lengths, and wet weight was measured. This was then dried at 36 degrees for 24 hours, and dry weight was measured.
The measuring methods employed were BG5B, UV-rate, and JSCC methods, respectively.

Molecule	GH ([1]; dose 10 nmol/kg)	GH ([1]; dose 100 nmol/kg)	Intestinal fluid weight [2]	amylase activity compared to the vehicle (in words) [3]	also measured
29C(disialo)-SRIF28 [Example 13]	497 ng/mL	88.5 ng/mL	–	–	–
C[C@@H](O)[C@@H]1NC(=O)[C@H](CCCCN)NC(=O)[C@@H](Cc2c[nH]c3ccccc23)NC(=O)[C@H](Cc2ccccc2)NC(=O)[C@@H](NC(=O)[C@H](N)Cc2ccccc2)CSSC[C@@H](C(=O)N[C@H](CO)[C@@H](C)O)NC1=O [Octreotide, reference compound]	–	–	693 ± 48 mg	–	–
C(disialo)-R-K-SRIF14 [Example 18]	–	–	–	low value compared to the vehicle	LDH activity compared to the vehicle (in words) [3]: low value compared to the vehicle
N19C(disialo)-SRIF28 [Example 10]	563 ng/mL	1.5 ng/mL	–	–	–
S1-2C(asialo)-SRIF28 [Example 28]	–	–	566 ± 34 mg	–	–
S1C(disialo)-SRIF28 [Example 1]	–	–	–	low value compared to the vehicle	–
